Measurements: paper PMC6273578, “Design, Synthesis and Biological Evaluation of Benzohydrazide Derivatives Containing Dihydropyrazoles as Potential EGFR Kinase Inhibitors” (Molecules, 2016)

Experiments:
[1] = Cytotoxicity test (MTT) on 293T cells; settings: human, 293T human kidney epithelial cells
Method: The cytotoxic activity in vitro was measured by the colorimetric MTT assay. […] For the cytotoxicity assay, 20 μL of MTT (5 mg/mL) was added per well 4 h before the end of the incubation. After removing the supernatant, 200 μL DMSO was added to dissolve the formazan crystals. The absorbance at λ 570 nm was read on an LX300 Epson Diagnostic microplate reader, untreated cells were used as negative controls.

HeLa cells = test: MTT antiproliferative assay, HeLa; type: cell-based, human; settings: Homo sapiens, read-out: In vitro antiproliferative activity IC50, HeLa
Method: (§1) IC50 values of the test compounds against A549, MCF-7, Hela and HepG2 cells were obtained from State Key Laboratory of Pharmaceutical Biotechnology, Nanjing University, and were determined by a standard (MTT)-based colorimetric assay (Beyotime Inst. Biotech., Nanjing, China). Tumor cell lines were grown to mid-log phase and then diluted to […] making sure they were seeded in 96-well plates (Philas, Nanjing, China) at a density of 5 × 10^3–1 × 10^4 cells per well. The outer wells containing 1 × PBS solution of the plate are not used for the assay to avoid the possibility of edge effects. The plate was incubated at 37 °C in a 5% CO2 incubator in DMEM containing 10% fetal bovine serum (FBS, Gibco, Waltham, MA, USA) for 24 h. Then, we added a 100-μL series concentration of drug-containing medium into the wells to maintain the final concentration of drug as 100, 10, 1 and 0.1 μmol/L. After 12 h, cell survival was determined by the addition of a MTT (3-(4,5-dimethylthiazol-2-yl)-2,5-diphenyl trtrazolium bromide) solution (10 μL of 5 mg/mL MTT in 1 × PBS). We waited for 4 h proliferation, discarded the medium and quickly added 150 μL DMSO per well, shaking the plates well for 10 min to ensure complete dissolution. Optical absorbance was measured at 570 nm on a microplate reader (Bio-Rad, Hercules, CA, USA). Survival ratios are expressed in percentages with respect to untreated cells. The experiments were replicated at least three times to verify the methodology reproducibility when using the above-mentioned conditions.

A549 cells = test: MTT antiproliferative assay, A549; type: cell-based, human; settings: Homo sapiens, read-out: In vitro antiproliferative activity IC50, A549
Method: as §1

[2] = target: epidermal growth factor receptor (EGFR) (Homo sapiens, UniProt P00533); test: EGFR kinase inhibition, solid-phase ELISA assay
Method: All these newly synthesized compounds were evaluated for their inhibitory activities against EGFR kinases using a solid-phase ELISA assay.
EGFR tyrosine kinase activity was determined by an enzyme linked-immunosorbent assay (ELISA) in 96-well plates precoated in a 10 mL reaction volume including 4 mL diluted test compounds, 4 mL substrate and 2 mL ATP. […] The plates were then aspirated and washed twice with 200 mL 0.9% (w/v) NaCl, and incorporation of Pi was determined with an LX300 Epson Diagnostic microplate reader. […] The experiments were replicated at least three times to verify the methodology reproducibility when using the above-mentioned conditions.

MCF-7 cells = test: MTT antiproliferative assay, MCF-7; type: cell-based, human; settings: Homo sapiens, MCF7, read-out: In vitro antiproliferative activity IC50, MCF-7
Method: as §1

HepG2 cells = test: MTT antiproliferative assay, HepG2; type: cell-based, human; settings: Homo sapiens, read-out: In vitro antiproliferative activity IC50, HepG2
Method: as §1

Chain of epidermal growth factor receptor (EGFR) (P00533 25-1210): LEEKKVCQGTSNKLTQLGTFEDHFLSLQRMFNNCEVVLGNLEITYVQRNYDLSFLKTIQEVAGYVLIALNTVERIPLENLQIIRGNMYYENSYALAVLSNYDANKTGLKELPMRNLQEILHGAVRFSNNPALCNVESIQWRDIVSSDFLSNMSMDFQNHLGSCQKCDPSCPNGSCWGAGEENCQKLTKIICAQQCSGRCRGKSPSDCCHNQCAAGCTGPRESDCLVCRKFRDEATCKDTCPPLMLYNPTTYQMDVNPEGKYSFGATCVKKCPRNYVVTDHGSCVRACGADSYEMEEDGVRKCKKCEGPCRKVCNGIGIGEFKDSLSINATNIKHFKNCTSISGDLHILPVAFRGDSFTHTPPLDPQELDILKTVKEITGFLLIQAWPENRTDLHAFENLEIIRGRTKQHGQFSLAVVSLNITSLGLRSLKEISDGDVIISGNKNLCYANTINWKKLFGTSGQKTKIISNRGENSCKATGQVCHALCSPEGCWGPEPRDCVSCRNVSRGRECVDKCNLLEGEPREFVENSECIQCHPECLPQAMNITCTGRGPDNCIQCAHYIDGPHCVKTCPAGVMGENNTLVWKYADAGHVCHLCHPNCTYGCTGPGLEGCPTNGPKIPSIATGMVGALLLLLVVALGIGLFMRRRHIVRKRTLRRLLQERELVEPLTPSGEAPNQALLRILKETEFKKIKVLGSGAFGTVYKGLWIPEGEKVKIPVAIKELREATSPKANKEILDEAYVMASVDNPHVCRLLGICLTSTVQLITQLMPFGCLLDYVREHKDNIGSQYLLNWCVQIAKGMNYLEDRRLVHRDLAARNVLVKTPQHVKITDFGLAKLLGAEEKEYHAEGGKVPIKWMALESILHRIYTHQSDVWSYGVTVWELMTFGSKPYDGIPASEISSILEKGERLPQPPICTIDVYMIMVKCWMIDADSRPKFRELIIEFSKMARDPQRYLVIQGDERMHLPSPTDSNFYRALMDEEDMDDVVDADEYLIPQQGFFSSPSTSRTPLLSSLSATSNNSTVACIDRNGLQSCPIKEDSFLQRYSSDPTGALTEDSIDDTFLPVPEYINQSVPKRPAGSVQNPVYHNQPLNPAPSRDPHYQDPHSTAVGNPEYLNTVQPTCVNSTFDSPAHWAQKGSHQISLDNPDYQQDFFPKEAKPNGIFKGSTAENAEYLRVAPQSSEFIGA

Structure (SMILES)	CC50 at 24 h [1]	IC50 (HeLa cells)	IC50 (A549 cells)	melting point	IC50 [2]	IC50 (MCF-7 cells)	IC50 (HepG2 cells)
COc1cccc(/C=N/NC(=O)c2ccc(N3N=C(c4cccc(F)c4)CC3c3ccc4ccccc4c3)cc2)c1 (centres unmarked) [Compound H10, (E)-4-(3-(3-Fluorophenyl)-5-(naphthalen-2-yl)-4,5-dihydro-1H-pyrazol-1-yl)-N′-(3-methoxybenzylidene)-benzohydrazide]	95.8 µM	84.1 µM	58.6 µM	241 to 243 °C	20 µM	80.1 µM	92.5 µM
COc1ccc(/C=N/NC(=O)c2ccc(N3N=C(c4cc(F)cc(F)c4)CC3c3ccc4ccccc4c3)cc2)cc1 (centres unmarked) [Compound H28, (E)-4-(3-(3,5-Difluorophenyl)-5-(naphthalen-2-yl)-4,5-dihydro-1H-pyrazol-1-yl)-N′-(4-methoxy-benzylidene)benzohydrazide]	82.2 µM	47.7 µM	39.4 µM	238 to 240 °C	12.3 µM	56.1 µM	48.1 µM
COc1ccc(/C=N/NC(=O)c2ccc(N3N=C(c4ccc(Cl)c(Cl)c4)CC3c3ccc4ccccc4c3)cc2)cc1 (centres unmarked) [Compound H31, (E)-4-(3-(3,4-Dichlorophenyl)-5-(naphthalen-2-yl)-4,5-dihydro-1H-pyrazol-1-yl)-N'-(4-methoxy-benzylidene)benzohydrazide]	84.8 µM	31.8 µM	24.8 µM	243 to 245 °C	9.66 µM	34.4 µM	36.3 µM
COc1ccc(/C=N/NC(=O)c2ccc(N3N=C(c4ccccc4F)CC3c3ccc4ccccc4c3)cc2)cc1 (centres unmarked) [Compound H25, (E)-4-(3-(2-Fluorophenyl)-5-(naphthalen-2-yl)-4,5-dihydro-1H-pyrazol-1-yl)-N′-(4-methoxybenzylidene)-benzohydrazide]	85.6 µM	61.9 µM	48.6 µM	244 to 246 °C	15.3 µM	65.5 µM	71.1 µM
COc1cccc(/C=N/NC(=O)c2ccc(N3N=C(c4ccccc4F)CC3c3ccc4ccccc4c3)cc2)c1 (centres unmarked) [Compound H9, (E)-4-(3-(2-Fluorophenyl)-5-(naphthalen-2-yl)-4,5-dihydro-1H-pyrazol-1-yl)-N′-(3-methoxybenzylidene)-benzohydrazide]	83.4 µM	63.8 µM	50.6 µM	235 to 237 °C	16.2 µM	70.4 µM	76.5 µM
COc1ccc(/C=N/NC(=O)c2ccc(N3N=C(c4cccc(Cl)c4)CC3c3ccc4ccccc4c3)cc2)cc1 (centres unmarked) [Compound H29, (E)-4-(3-(3-Chlorophenyl)-5-(naphthalen-2-yl)-4,5-dihydro-1H-pyrazol-1-yl)-N′-(4-methoxybenzylidene)-benzohydrazide]	94.4 µM	43 µM	33.2 µM	241 to 243 °C	11.2 µM	50.9 µM	41 µM
COc1cccc(/C=N/NC(=O)c2ccc(N3N=C(c4cc(OC)c(OC)c(OC)c4)CC3c3ccc4ccccc4c3)cc2)c1 (centres unmarked) [Compound H7, (E)-N′-(3-Methoxybenzylidene)-4-(5-(naphthalen-2-yl)-3-(3,4,5-trimethoxyphenyl)-4,5-dihydro-1H-pyrazol-1-yl)benzohydrazide]	92.9 µM	> 100 µM	78.3 µM	230 to 232 °C	26.9 µM	95.3 µM	> 100 µM
COc1cccc(/C=N/NC(=O)c2ccc(N3N=C(c4ccc(Br)cc4)CC3c3ccc4ccccc4c3)cc2)c1 (centres unmarked) [Compound H16, (E)-4-(3-(4-Bromophenyl)-5-(naphthalen-2-yl)-4,5-dihydro-1H-pyrazol-1-yl)-N′-(3-methoxybenzylidene)-benzohydrazide]	81.9 µM	26.5 µM	21.8 µM	245 to 247 °C	9.01 µM	31.9 µM	34.2 µM
COc1cccc(/C=N/NC(=O)c2ccc(N3N=C(c4cccc(Cl)c4)CC3c3ccc4ccccc4c3)cc2)c1 (centres unmarked) [Compound H13, (E)-4-(3-(3-Chlorophenyl)-5-(naphthalen-2-yl)-4,5-dihydro-1H-pyrazol-1-yl)-N′-(3-methoxybenzylidene)-benzohydrazide]	93.4 µM	46.4 µM	35.2 µM	231 to 233 °C	11.9 µM	51.3 µM	45.4 µM
COc1cccc(/C=N/NC(=O)c2ccc(N3N=C(c4ccc(Cl)c(Cl)c4)CC3c3ccc4ccccc4c3)cc2)c1 (centres unmarked) [Compound H15, (E)-4-(3-(3,4-Dichlorophenyl)-5-(naphthalen-2-yl)-4,5-dihydro-1H-pyrazol-1-yl)-N′-(3-methoxy-benzylidene)benzohydrazide]	88.2 µM	33.6 µM	26.6 µM	234 to 236 °C	9.87 µM	35.2 µM	38.9 µM
COc1ccc(/C=N/NC(=O)c2ccc(N3N=C(c4cccc(F)c4)CC3c3ccc4ccccc4c3)cc2)cc1 (centres unmarked) [Compound H26, (E)-4-(3-(3-Fluorophenyl)-5-(naphthalen-2-yl)-4,5-dihydro-1H-pyrazol-1-yl)-N′-(4-methoxybenzylidene)-benzohydrazide]	94.3 µM	85.2 µM	56.4 µM	240 to 242 °C	18.6 µM	77.5 µM	80.1 µM
COc1cccc(/C=N/NC(=O)c2ccc(N3N=C(c4ccc(F)cc4)CC3c3ccc4ccccc4c3)cc2)c1 (centres unmarked) [Compound H11, (E)-4-(3-(4-Fluorophenyl)-5-(naphthalen-2-yl)-4,5-dihydro-1H-pyrazol-1-yl)-N′-(3-methoxybenzylidene)-benzohydrazide]	86.5 µM	56.2 µM	45.2 µM	235 to 237 °C	14.1 µM	60.8 µM	60.9 µM
COc1cccc(/C=N/NC(=O)c2ccc(N3N=C(c4cc(F)cc(F)c4)CC3c3ccc4ccccc4c3)cc2)c1 (centres unmarked) [Compound H12, (E)-4-(3-(3,5-Difluorophenyl)-5-(naphthalen-2-yl)-4,5-dihydro-1H-pyrazol-1-yl)-N′-(3-methoxybenzylidene) benzohydrazide]	80.2 µM	50.3 µM	41.5 µM	225 to 227 °C	12.8 µM	55.6 µM	52.3 µM
COc1ccc(/C=N/NC(=O)c2ccc(N3N=C(c4ccc(Br)cc4)CC3c3ccc4ccccc4c3)cc2)cc1 (centres unmarked) [Compound H32, (E)-4-(3-(4-Bromophenyl)-5-(naphthalen-2-yl)-4,5-dihydro-1H-pyrazol-1-yl)-N′-(4-methoxybenzylidene)-benzohydrazide]	83.6 µM	25.6 µM	19.7 µM	238 to 240 °C	8.64 µM	30.2 µM	32.9 µM
C#Cc1cccc(Nc2ncnc3cc(OCCOC)c(OCCOC)cc23)c1 [Erlotinib, reference compound]	–	0.17 µM	0.2 µM	–	–	0.12 µM	0.1 µM
CCOc1ccc(C2=NN(c3ccc(C(=O)N/N=C/c4ccc(OC)cc4)cc3)C(c3ccc4ccccc4c3)C2)cc1 (centres unmarked) [Compound H24, (E)-4-(3-(4-Ethoxyphenyl)-5-(naphthalen-2-yl)-4,5-dihydro-1H-pyrazol-1-yl)-N′-(4-methoxybenzylidene)-benzohydrazide]	81.3 µM	15.3 µM	9.92 µM	237 to 239 °C	6.65 µM	13.8 µM	18.6 µM
COc1ccc(/C=N/NC(=O)c2ccc(N3N=C(c4cc(OC)c(OC)c(OC)c4)CC3c3ccc4ccccc4c3)cc2)cc1 (centres unmarked) [Compound H23, (E)-N′-(4-Methoxybenzylidene)-4-(5-(naphthalen-2-yl)-3-(3,4,5-trimethoxyphenyl)-4,5-dihydro-1H-pyrazol-1-yl)benzohydrazide]	85.8 µM	94.1 µM	75.7 µM	237 to 239 °C	24.6 µM	93.2 µM	89.5 µM
